Source: the supplement of paper PMC10307832

Legend:
Assay in all cases: relative viability (nuclei count vs DMSO), 5 days (fraction); higher = more cells survive
CX-5461 + Phenformin = compound: Cc1cnc(CNC(=O)c2c(=O)c3ccc(N4CCCN(C)CC4)nc3n3c2sc2ccccc23)cn1 [CX-5461] + N=C(N)NC(=N)NCCc1ccccc1 [Phenformin] (partner 250 µM)
How it was run: (§1)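 Lung cancer cell lines, seeded in 1536-well plates, were treated the following day by pin tool with a single drug or with five library-drug doses (not always all listed) in √10 steps on top of a fixed anchor-drug dose. Cells were fixed and nuclei stained in one step after 5 days, and nuclei were counted. Relative viability is the nuclei count for treated wells divided by that for vehicle wells, reported as medians of duplicate plates.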

IMD-0354 + Luminespib = compound: O=C(Nc1cc(C(F)(F)F)cc(C(F)(F)F)c1)c1cc(Cl)ccc1O [IMD-0354] + CCNC(=O)c1noc(-c2cc(C(C)C)c(O)cc2O)c1-c1ccc(CN2CCOCC2)cc1 [Luminespib] (partner 0.01 µM)
How it was run: as §1

IMD-0354 + Alpelisib = compound: O=C(Nc1cc(C(F)(F)F)cc(C(F)(F)F)c1)c1cc(Cl)ccc1O [IMD-0354] + Cc1nc(NC(=O)N2CCC[C@H]2C(N)=O)sc1-c1ccnc(C(C)(C)C(F)(F)F)c1 [Alpelisib] (partner 2 µM)
How it was run: as §1

CX-5461 + Navitoclax = compound: Cc1cnc(CNC(=O)c2c(=O)c3ccc(N4CCCN(C)CC4)nc3n3c2sc2ccccc23)cn1 [CX-5461] + CC1(C)CCC(c2ccc(Cl)cc2)=C(CN2CCN(c3ccc(C(=O)NS(=O)(=O)c4ccc(N[C@H](CCN5CCOCC5)CSc5ccccc5)c(S(=O)(=O)C(F)(F)F)c4)cc3)CC2)C1 [Navitoclax] (partner 0.5 µM)
How it was run: as §1

Cell Line | relative viability (CX-5461 + Phenformin; first compound 0.01 µM) | relative viability (CX-5461 + Phenformin; first compound 0.03162 µM) | relative viability (CX-5461 + Phenformin; first compound 0.1 µM) | relative viability (CX-5461 + Phenformin; first compound 0.3162 µM) | relative viability (CX-5461 + Phenformin; first compound 1 µM) | relative viability (IMD-0354 + Luminespib; first compound 0.04 µM) | relative viability (IMD-0354 + Luminespib; first compound 0.1265 µM) | relative viability (IMD-0354 + Luminespib; first compound 0.4 µM) | relative viability (IMD-0354 + Luminespib; first compound 1.265 µM) | relative viability (IMD-0354 + Luminespib; first compound 4 µM) | relative viability (IMD-0354 + Alpelisib; first compound 0.04 µM) | relative viability (IMD-0354 + Alpelisib; first compound 0.1265 µM) | relative viability (IMD-0354 + Alpelisib; first compound 0.4 µM) | relative viability (IMD-0354 + Alpelisib; first compound 1.265 µM) | relative viability (IMD-0354 + Alpelisib; first compound 4 µM) | relative viability (CX-5461 + Navitoclax; first compound 0.01 µM) | relative viability (CX-5461 + Navitoclax; first compound 0.03162 µM) | relative viability (CX-5461 + Navitoclax; first compound 0.1 µM) | relative viability (CX-5461 + Navitoclax; first compound 0.3162 µM) | relative viability (CX-5461 + Navitoclax; first compound 1 µM)
NCI-H3122 | 0.385 | 0.343 | 0.316 | 0.378 | 0.248 | 0.0711 | 0.103 | 0.0803 | 0.0918 | 0.0652 | 0.845 | 0.917 | 0.365 | 0.271 | 0.163 | 0.966 | 1.04 | 1.03 | 1.01 | 0.97
PC-3 [JPC-3] | 0.479 | 0.449 | 0.467 | 0.467 | 0.455 | 0.688 | 0.53 | 0.569 | 0.351 | 0.259 | 1.1 | 1.04 | 0.714 | 0.774 | 0.183 | 0.86 | 0.861 | 0.746 | 0.784 | 0.821
PC-14 | 0.761 | 0.511 | 0.499 | 0.229 | 0.319 | 0.143 | 0.18 | 0.152 | 0.134 | 0.109 | 1.13 | 0.681 | 0.587 | 0.525 | 0.219 | 1.18 | 1.06 | 1.03 | 0.974 | 0.979
RERF-LC-KJ | 0.448 | 0.457 | 0.292 | 0.41 | 0.386 | 1.42 | 1.26 | 0.4 | 0.227 | 0.303 | 0.823 | 0.71 | 0.586 | 0.404 | 0.303 | 0.95 | 0.969 | 1.17 | 0.887 | 0.837
SK-LU-1 | 0.615 | 0.545 | 0.397 | – | 0.229 | 0.178 | 0.169 | 0.244 | 0.149 | 0.169 | 1.39 | 0.658 | 0.472 | 0.174 | 0.215 | 0.792 | 0.972 | 0.718 | 0.808 | 0.23
SK-MES-1 | 0.662 | 0.645 | 0.452 | 0.625 | 0.313 | 0.904 | 1.01 | 0.437 | 0.169 | 0.233 | 0.976 | 0.834 | 0.598 | 0.283 | 0.285 | 1.19 | 1.28 | 1.28 | 1.38 | 1.14
SW 1573 | 0.421 | 0.369 | 0.151 | 0.303 | 0.121 | 0.189 | 0.209 | 0.218 | 0.138 | 0.127 | 0.768 | 0.788 | 0.328 | 0.202 | 0.15 | 0.974 | 0.998 | 1.05 | 0.872 | 1.12
